From patent publication US10945962B2, “Controlled-release peptide compositions and uses thereof” (BOARD OF REGENTS OF THE UNIVERSITY OF NEBRASKA, priority 2011, dated 2021)
Read-outs that look alike come from different tables or passages of the source. Square brackets hold non-standard residues; d marks the D form. Ends that are not written are not given here. NMeL = CN[C@@H](CC(C)C)C(=O)O

What was measured:
[1] = test system: MUC1 epitope; assay: Immunization with MUC1/C5a agonist peptides, serum antibody responses (RIA, ELISA); format: in vivo; settings: 100 μg i.p. with RIBI adjuvant, three immunizations, Balb/c and C57B16 mice
Description: Animal Models. The strains of mice used in the studies described in this Example were inbred 6- to 12-week-old C57B16(H-2b) and Balb/c ([…]) females obtained from Jackson Labs (Bar Harbor, Me.). […] The MUC1 peptide selected for these studies contained a motif that may bind to the H-2Kb molecule of the C57B16 mice. Therefore, a strain of mouse that lacked this class I molecule-binding motif (Balb/c) was also studied to determine the relative contribution of the class I-binding motif to the antigen presentation properties of these peptides.
Immunization Protocol. Preimmune sera were obtained from mice, which were subsequently immunized intraperitoneally with 100 μg of the indicated peptide with RIBI adjuvant (MPL+TDM+CWS) (Sigma Immunochemicals). Animals were boosted twice at two-week intervals using the same injection procedure. Sera were obtained following three immunizations (at 6 weeks).
Analysis of Serum Antibody Responses. For radioimmunoassay (RIA), anti-peptide antibodies were determined, before and at different time points after immunization, in 96-well microtiter plates (Dynatech Laboratories, Inc.). Plates were coated with 50 μl of a 100 μg/ml appropriate peptide in phosphate-buffered saline (PBS) pH 7.4 solution overnight at 4° C. The wells were blocked by incubation with 5% dry milk in PBS pH 7.4 for at least two hours. Anti-peptide antibody titers were determined using serial dilutions of sera. […] After washing, specific radioactivity was recorded in a gamma counter (1272 CliniGamma, LKB).
Anti-peptide antibody isotype titers were determined by enzyme-linked immunosorbent assay (ELISA) carried out in 96-well microtiter plates. […] Anti-peptide titers were determined using serial dilutions of sera. […] Again, the plates were washed 4 times with washing buffer and bound enzyme was detected by the addition of 50 μl 1 mg/ml p-nitrophenyl phosphate (Sigma) in 10% diethanolamine (Sigma) pH 9.4. The reaction was stopped by the addition of 50 μl of 0.5 M sodium hydroxide and absorbance values (A405) were determined using Titertek Multiskan (Flow Laboratories, Irvine, Scotland). […]

[2] = test system: E. coli strain DHSα; assay: Direct killing of bacteria, OD600 growth curves; format: cell-based; settings: for effect on log phase growth (OD600): added at OD600 0.2, 500 μg/m, LB or TSB
Procedure: E. coli strain DHSα was grown overnight in Lennox Broth (LB). This culture was diluted to an optical density at […] (OD600) of 0.06. The diluted E. coli was dispensed in 1.5 ml aliquots into separate tubes and 1.5 ml of EP67 ([…] ID NO: 4)), EP54 ([…] NO: 3)), scrambled-EP67 (s-EP67) or scrambled-EP54 in LB was added to obtain a final concentration of 500 μg/ml with the E. coli at an OD600 of 0.03. A culture in LB was also prepared. The cultures were incubated at 37° C. with shaking and the OD600 readings recorded hourly. In order to determine whether the growth media altered the effectiveness of EP67, LB was replaced with an alternative growth media, Tryptic Soy Broth (TSB). To test the efficacy of EP67 on bacteria growing in log phase, overnight cultures of DHSα were grown in either LB or TSB. […] DH5α control cultures (absence of additives) were also prepared. The tubes were further shaken at 37° C. and OD600 readings were taken hourly.

[3] = test system: neutrophils; assay: Neutrophil chemotaxis and myeloperoxidase assay, histopathology of injection site; format: in vivo, CD1 mice; settings: for histopathologic analysis of skin tissue: 250 μg s.c., no bacteria
Procedure: Neutrophil chemotaxis and myeloperoxidase assay. Neutrophil recruitment at the site of injection by EP67 or sEP67 was examined using an in vivo chemotaxis assay as described previously (van Sorge N M, et al., PLoS One 2008; 3:e2964). Briefly, 250 μg EP67 or sEP67 were injected subcutaneously into the right flank of CD1 mice. The injection was repeated after 24 h. Mice were euthanized 4 h after the second injection and the site of injection excised for histopathologic analysis or determination of myeloperoxidase (MPO) activity as described previously (van Sorge N M, et al., supra). The assay was carried out two times and the samples analyzed in duplicate.
Neutrophil influx is essential for the protective action of EP67. […] Neutrophil recruitment to the site of EP67 injection was further analyzed using an in vivo neutrophil recruitment assay as described previously (van Sorge N M, et al., supra; and Banerjee A, et al., Cell Microbiol; 12:1576-1588). Neutrophil migration was assessed in skin homogenates following injection of EP67 or sEP67 by determining the level of neutrophil enzyme myeloperoxidase (MPO), which serves as an effective indication of neutrophil infiltration (Banerjee A, et al., supra; and Bradley P P, et al., J Invest Dermatol 1982; 78:206-209). This method compares well with other in vivo assays of neutrophil chemotaxis (van Sorge N M, et al., supra).

[4] = test system: S. aureus (USA300 LAC strain) biofilm; assay: Catheter-associated biofilm bacterial burden; format: in vivo; settings: C57BL/6 mice, Day 3, relative to sEP67 and PBS vehicle
Procedure: A S. aureus (USA300 LAC strain) biofilm was established on a hollow catheter (1 cm in length) inserted subcutaneously into C57BL/6 mice by introducing 1000 CFUs of S. aureus into the catheter lumen. At the time of infection, one dose of EP67 (200 μg/ml dissolved in PBS) was introduced. At both 24 and 48 h following infection, a series of four injections of EP67 were made; two into each open end of the catheter (20 μl each) and two along the top and bottom at points perpendicular to the middle of the catheter (50 μl each). Samples of the biofilm and surrounding tissue were obtained at Day 3 and assessed for the presence of viable bacteria by standard culture methods.

[5] = test system: influenza A/A/PR/8; format: in vivo; settings: mice
[6] = test system: exMAcs and neutrophils; settings: aged lung
Description: Since the aged mouse is considered a strong model for age-related changes in human immunity, the response of aged mice to EP67 insufflation was examined.

[7] = test system: anti-influenza antibodies; assay: ELISA for anti-influenza antibodies on serum; format: in vivo, mice; settings: influenza-infected, EP67-treated groups
[8] = test system: S. aureus (Newman strain); assay: S. aureus in vitro EP67 killing curves; format: cell-based; settings: dilution series, LB
Procedure: 150 μl of LB growth medium plus 50 μl of EP67 or s-EP67 were added to individual culture wells resulting in a dilution series of 6 wells per EP67 or s-EP67. A “no EP67” well (control) was included at the end of each series. S. aureus (Newman strain) was allowed to grow to an OD600 of 0.4 and each well of the dilution series was inoculated with 5 μl of the culture. Two wells with no bacterial inoculums were included to serve as controls. Plates were incubated at 37° C. with agitation and the OD600 of each well was measured hourly using a plate reader.

[9] = test system: GBS; assay: Group B Streptococcus (GBS) meningitis model; format: in vivo; settings: CD1 mice, 250 μg i.p. at day −1, 0, 1 and 2, 96 hours post-injection
Procedure: 8-week-old female CD1 mice were treated with 250 μg of EP67 or s-EP67 at day −1, 0, 1 and 2 via i.p. injection. GBS was injected i.p. at 1×10^9 cfu/mouse. Brains and blood were harvested from each mouse 96 hours post-injection. The tissue was homogenized, diluted and plated to determine the cfu/g bacteria.

[10] = test system: BAL cells; settings: infected with influenza A/PR/8 and simultaneously treated, one day later
Procedure: To test the robustness of the EP67 response, mice were treated at the time of influenza infection. Animals were sacrificed one day later for analysis of BAL cells as above.

[11] = test system: IL-6, TNF-α, INF-γ and KC; assay: Measurement of cytokines in tissue homogenates by ELISA; format: in vivo, mice
Procedure: Measurement of cytokines. IL-6, TNF-α, INF-γ and KC inflammatory cytokines were measured in tissue homogenates as previously described using ELISA for IL-6, TNF-α, INF-γ (Morgan E L, et al., Vaccine; 28:8275-8279), or according to manufacturer's protocols (BD and R&D Systems) for KC. Samples were run in triplicate.
Proinflammatory cytokines are enhanced by EP67 treatment. The decrease in lesion size observed in EP67-treated animals indicated an enhanced immune activation in these animals. In order to determine the nature of the immune response activated by EP67 treatment, skin lesions were harvested 48 h post-infection and EP67 or sEP67 treatment, and subjected to ELISA to measure proinflammatory cytokines in tissue homogenates.

[12] = test system: CA-MRSA strain USA300; assay: Mouse model of MRSA dermonecrotic infection (lesion size, bacterial load); format: in vivo, Staphylococcus aureus
[13] = test system: bronchoalveolar lavage (BAL) cells; assay: Insufflation of EP67 to the lungs, FACS analysis of BAL cells; format: in vivo, mice
Procedure: In short, EP67 (3 mg/kg) was delivered directly to the lungs of mice through insufflation (IN). Animals were sacrificed one day later. Lungs were lavaged with PBS to isolate the bronchoalveolar lavage (BAL) cells for staining and FACS analysis.

[14] = 48 h post-infection, compared to sEP67
[15] = EP67 3 mg/kg insufflation, one day later

Tyr-Ser-Phe-Lys-Pro-Met-Pro-Leu-(D-Ala)-Arg (YSFKPMPL[dA]R) [EP54, C5a C-terminal decapeptide agonist analog]
antibody response to inoculation [1]: no appreciable increase in antibody response

(MeL)RMYKPaFDS [sEP67, reference compound]
effect on log phase growth (OD600) [2]: little or no effect on growth | histopathologic analysis of skin tissue [3]: normal pathology

YSFKPMPLaRKQGGFLGL (YSFKPMPL[dA]RKQGGFLGL; listed as Homo sapiens) [peptide 4]
antibody response to inoculation [1]: immune responses were not produced | antibody response to inoculation ([1]; listed as MUC1 epitope conjugated to the C5a agonist peptide at its C-terminus): no appreciable increase in antibody response

Tyr-Ser-Phe-Lys-Asp-Met-Pro-MeL-(D-Ala)-Arg (YSFKDMP[NMeL][dA]R; listed as Homo sapiens) [EP67, C-terminal analog of C5a]
bacterial burdens within the biofilm and surrounding tissue [4]: significant decrease in bacterial burdens within the biofilm and surrounding tissue | effect on bacterial growth (OD600) ([2]; 500 μg/ml, start OD600 0.03, LB or TSB): induces direct bacteriostatic/bacteriocidal effects | effect on log phase growth (OD600) [2]: significantly reduce and/or stop log phase growth | influenza-induced weight loss ([5]; treated one day after infection): displayed significant protection from influenza-induced weight loss | influenza-induced weight loss ([5]; treated the day before infection or the day of infection): lost significantly less weight than the non-treated animals | exMAcs and neutrophils in the alveolar space [6]: induces a large population of exMAcs and neutrophils into the alveolar space | anti-influenza Abs in serum [7]: a high concentration of anti-influenza Abs was found in each group | effect on bacterial growth (OD600) [8]: dose dependent inhibitory effect | protection against GBS infection (cfu/g in brain and blood) [9]: protects against GBS infections in the central nervous system | BAL exMAcs and neutrophils [10]: showed a similar increase in BAL exMAcs and neutrophils to the uninfected animals treated with EP67 | IL-6 level in skin lesion homogenate [11, 14]: Significantly higher levels | murine KC level in skin lesion homogenate [11, 14]: Significantly higher levels | INF-γ production ([11]; during MRSA infection): increase | TNF-α production ([11]; during MRSA infection): increase | cutaneous lesion size ([12]; CD1 mice, 250 μg s.c., 48 h post-bacterial inoculation, compared to sEP67): significantly reduced | bacterial load (CFU) within lesions ([12]; CD1 mice, 5 days post-inoculation, compared to sEP67 or PBS): significant reduction in bacterial load | lesion size ([12]; CD88−/− mice, EP67 versus sEP67): no difference in lesion size | lesion size ([12]; CD-1 mice given isotype IgG control antibody, compared to sEP67): significant reduction in lesion size | lesion size ([12]; neutropenic CD-1 mice (RB6-8C5 monoclonal antibody), EP67 versus sEP67): no quantifiable difference in lesion size | lesion size ([12]; wild-type CD88+/+ C57Bl/6 mice, compared to sEP67): significantly smaller lesions | CD11b+CD11c− cells (GR-1+ neutrophils) in the alveolar space [13, 15]: a large population of CD11b^+CD11c^− cells appeared in the alveolar space | exudate macrophages (exMac) in BAL cells [13, 15]: appearance of cells bearing the CD11b^+CD11c^+ phenotype of exudate macrophages (exMac) | dose dependence of EP67-induced changes in BAL populations ([13]; mouse, in vivo): displayed a strict dose-response | time course of the EP67 response in BAL cells ([13]; seven days post EP67 administration): the neutrophils were largely lost | histopathologic analysis of skin tissue [3]: massive influx of inflammatory cells, including neutrophils | myeloperoxidase (MPO) level, accumulating neutrophils ([3]; skin homogenates, 250 μg s.c. twice, compared to sEP67): significantly higher
